Results from patent US6737383B1, “Herbicidal oxadiazolidines” (priority 1999, dated 2004).

Legend:
sugar beet = test: Test B pre/postemergence sugar beet; type: in vivo, Beta vulgaris
Summary of the method: (§1)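 Herbicidal effect was estimated by eye on a ten-point control scale after plants spent twelve to sixteen days in a greenhouse following soil or foliar treatment. Foliar sprays targeted plants at one to four leaves; all doses were formulated in a non-phytotoxic solvent with surfactant.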

cocklebur = test: Test B pre/postemergence cocklebur; type: in vivo, Xanthium strumarium
Summary of the method: as §1

giant foxtail = test: Test B pre/postemergence giant foxtail; type: in vivo, Setaria faberii
Summary of the method: as §1

soybean = test: Test B pre/postemergence soybean; type: in vivo, Glycine max
Summary of the method: as §1

smallflower flatsedge = test: Test B flood test smallflower flatsedge; type: in vivo, Cyperus difformis
Summary of the method: (§2)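 Each value is a visual injury score relative to controls, with 10 meaning complete control and 0 no effect. Evaluation took place twelve to sixteen days after the 2-leaf-stage plants were treated and kept in the greenhouse.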

pigweed = test: Test B pre/postemergence pigweed; type: in vivo, Amaranthus retroflexus
Summary of the method: as §1

blackgrass = test: Test B pre/postemergence blackgrass; type: in vivo, Alopecurus myosuroides
Summary of the method: as §1

wild oat = test: Test B pre/postemergence wild oat; type: in vivo, Avena fatua
Summary of the method: as §1

bamyardgrass = test: Test B flood test barnyardgrass; type: in vivo, Echinochloa crus-galli
Summary of the method: as §2

morningglory = test: Test B pre/postemergence morningglory; type: in vivo, Ipomoea hederacea
Summary of the method: as §1

purple nutsedge = test: Test B pre/postemergence purple nutsedge; type: in vivo, Cyperus rotundus
Summary of the method: as §1

velvetleaf = test: Test B pre/postemergence velvetleaf; type: in vivo, Abutilon theophrasti
Summary of the method: as §1

surinam grass = test: Test B pre/postemergence surinam grass; type: in vivo, Brachiaria decumbens
Summary of the method: as §1

corn = test: Test B pre/postemergence corn; type: in vivo, Zea mays
Summary of the method: as §1

rape = test: Test B pre/postemergence rape; type: in vivo, Brassica napus
Summary of the method: as §1

crabgrass = test: Test B pre/postemergence crabgrass; type: in vivo, Digitaria sanguinalis
Summary of the method: as §1

[1] = Preemergence, Rate 62 g/ha, scale of 0 to 10 where 0 is no effect and 10 is complete control
[2] = Preemergence, Rate 125 g/ha, 0 is no effect, 10 is complete control
[3] = Preemergence, Rate 250 g/ha, scale 0 to 10, 0 is no effect, 10 is complete control
[4] = Preemergence, Rate 500 g/ha, scale of 0 to 10 where 0 is no effect and 10 is complete control
[5] = Rate 62 g/ha, Postemergence, scale of 0 to 10 where 0 is no effect and 10 is complete control
[6] = Rate 125 g/ha, Postemergence, scale 0 to 10
[7] = Rate 500 g/ha, Postemergence, scale 0 to 10
[8] = Rate 62 g/ha, headed Pre-emergence (flood test species), scale 0 to 10 (0 no effect, 10 complete control)
[9] = Rate 125 g/ha, Pre-emergence, flood test species, scale 0 to 10 where 0 is no effect and 10 is complete control
[10] = Rate 250 g/ha, Pre-emergence, flood-test species, scale 0 to 10, 0 is no effect, 10 is complete control
[11] = Rate 500 g/ha, Pre-emergence, flood test species, scale 0 to 10 (0 no effect, 10 complete control)

CC(C)N(C(=O)n1oc(=O)n(Cc2ccco2)c1=O)c1ccc(Cl)cc1 [Compound 206]
9: Plant response rating, Giant foxtail (giant foxtail; [4])
2: Plant response rating (0 to 10; 0 is no effect, 10 is complete control), Soybean (soybean; Rate 250 g/ha, Postemergence) | Soybean plant response rating (soybean; [7]) | Plant response rating (0 to 10; 0 is no effect, 10 is complete control), Morningglory (morningglory; Rate 250 g/ha, Postemergence)
0: Sugarbeets plant response rating (sugar beet; [1]) | Sugarbeets plant response rating (0 to 10 scale) (sugar beet; [2]) | Sugarbeets plant response rating (sugar beet; [3]) | Plant response rating, Sugarbeets (sugar beet; [4]) | Sugarbeets plant response rating (sugar beet; [5]) | Sugarbeets plant response rating (sugar beet; [6]) | Plant response rating (0 to 10; 0 is no effect, 10 is complete control), Sugarbeets (sugar beet; Rate 250 g/ha, Postemergence) | Sugarbeets plant response rating (sugar beet; [7]) | Cocklebur plant response rating (cocklebur; [1]) | Cocklebur plant response rating (0 to 10 scale) (cocklebur; [2]) | Cocklebur plant response rating (cocklebur; [3]) | Plant response rating, Cocklebur (cocklebur; [4]) | Cocklebur plant response rating (cocklebur; [5]) | Cocklebur plant response rating (cocklebur; [6]) | Plant response rating (0 to 10; 0 is no effect, 10 is complete control), Cocklebur (cocklebur; Rate 250 g/ha, Postemergence) | Cocklebur plant response rating (cocklebur; [7]) | Giant foxtail plant response rating (giant foxtail; [1]) | Giant foxtail plant response rating (giant foxtail; [5]) | Giant foxtail plant response rating (giant foxtail; [6]) | Plant response rating (0 to 10; 0 is no effect, 10 is complete control), Giant foxtail (giant foxtail; Rate 250 g/ha, Postemergence) | Giant foxtail plant response rating (giant foxtail; [7]) | Soybean plant response rating (soybean; [1]) | Soybean plant response rating (soybean; [3]) | Plant response rating, Soybean (soybean; [4]) | Soybean plant response rating (soybean; [5]) | S. Flatsedge plant response rating (smallflower flatsedge; [8]) | S. Flatsedge plant response rating (smallflower flatsedge; [9]) | S. Flatsedge plant response rating (smallflower flatsedge; [10]) | S. Flatsedge plant response rating (smallflower flatsedge; [11]) | Redroot pigweed plant response rating (pigweed; [1]) | Redroot pigweed plant response rating (0 to 10 scale) (pigweed; [2]) | Redroot pigweed plant response rating (pigweed; [3]) | Redroot pigweed plant response rating (pigweed; [5]) | Redroot pigweed plant response rating (pigweed; [6]) | Redroot pigweed plant response rating (pigweed; [7]) | Blackgrass plant response rating (blackgrass; [1]) | Blackgrass plant response rating (0 to 10 scale) (blackgrass; [2]) | Blackgrass plant response rating (blackgrass; [3]) | Plant response rating, Blackgrass (blackgrass; [4]) | Blackgrass plant response rating (blackgrass; [5]) | Blackgrass plant response rating (blackgrass; [6]) | Plant response rating (0 to 10; 0 is no effect, 10 is complete control), Blackgrass (blackgrass; Rate 250 g/ha, Postemergence) | Blackgrass plant response rating (blackgrass; [7]) | Wild oats plant response rating (wild oat; [1]) | Wild oats plant response rating (wild oat; [3]) | Plant response rating, Wild oats (wild oat; [4]) | Wild oats plant response rating (wild oat; [5]) | Wild oats plant response rating (wild oat; [6]) | Plant response rating (0 to 10; 0 is no effect, 10 is complete control), Wild oats (wild oat; Rate 250 g/ha, Postemergence) | Barnyardgrass plant response rating (bamyardgrass; [8]) | Barnyardgrass plant response rating (bamyardgrass; [9]) | Barnyardgrass plant response rating (bamyardgrass; [10]) | Barnyardgrass plant response rating (bamyardgrass; [11]) | Morningglory plant response rating (morningglory; [1]) | Morningglory plant response rating (0 to 10 scale) (morningglory; [2]) | Morningglory plant response rating (morningglory; [3]) | Plant response rating, Morningglory (morningglory; [4]) | Nutsedge plant response rating (purple nutsedge; [1]) | Nutsedge plant response rating (0 to 10 scale) (purple nutsedge; [2]) | Nutsedge plant response rating (purple nutsedge; [3]) | Plant response rating, Nutsedge (purple nutsedge; [4]) | Nutsedge plant response rating (purple nutsedge; [5]) | Nutsedge plant response rating (purple nutsedge; [6]) | Plant response rating (0 to 10; 0 is no effect, 10 is complete control), Nutsedge (purple nutsedge; Rate 250 g/ha, Postemergence) | Nutsedge plant response rating (purple nutsedge; [7]) | Velvetleaf plant response rating (velvetleaf; [1]) | Velvetleaf plant response rating (velvetleaf; [3]) | Plant response rating, Velvetleaf (velvetleaf; [4]) | Velvetleaf plant response rating (velvetleaf; [5]) | Velvetleaf plant response rating (velvetleaf; [6]) | Plant response rating (0 to 10; 0 is no effect, 10 is complete control), Velvetleaf (velvetleaf; Rate 250 g/ha, Postemergence) | B. signalgrass plant response rating (surinam grass; [1]) | B. signalgrass plant response rating (0 to 10 scale) (surinam grass; [2]) | B. signalgrass plant response rating (surinam grass; [3]) | Plant response rating, B. signalgrass (surinam grass; [4]) | B. signalgrass plant response rating (surinam grass; [5]) | B. signalgrass plant response rating (surinam grass; Rate 125 g/ha, Postemergence, scale 0 (no effect) to 10 (complete control)) | Plant response rating, B. signalgrass (surinam grass; Rate 250 g/ha, Postemergence, scale 0 to 10, 0 is no effect, 10 is complete control) | B. signalgrass plant response rating (surinam grass; Rate 500 g/ha, Postemergence, scale 0 to 10, 0 no effect, 10 complete control) | Corn plant response rating (corn; [1]) | Corn plant response rating (0 to 10 scale) (corn; [2]) | Corn plant response rating (corn; [3]) | Plant response rating, Corn (corn; [4]) | Corn plant response rating (corn; [5]) | Corn plant response rating (corn; [6]) | Plant response rating (0 to 10; 0 is no effect, 10 is complete control), Corn (corn; Rate 250 g/ha, Postemergence) | Corn plant response rating (corn; [7]) | Rape plant response rating (rape; [1]) | Rape plant response rating (0 to 10 scale) (rape; [2]) | Rape plant response rating (rape; [3]) | Plant response rating, Rape (rape; [4]) | Rape plant response rating (rape; [5]) | Rape plant response rating (rape; [6]) | Plant response rating (0 to 10; 0 is no effect, 10 is complete control), Rape (rape; Rate 250 g/ha, Postemergence) | Rape plant response rating (rape; [7]) | Crabgrass plant response rating (crabgrass; [1]) | Crabgrass plant response rating (0 to 10 scale) (crabgrass; [2]) | Crabgrass plant response rating (crabgrass; [5]) | Crabgrass plant response rating (crabgrass; [6]) | Plant response rating (0 to 10; 0 is no effect, 10 is complete control), Crabgrass (crabgrass; Rate 250 g/ha, Postemergence) | Crabgrass plant response rating (crabgrass; [7])
8: Giant foxtail plant response rating (giant foxtail; [3]) | Plant response rating, Crabgrass (crabgrass; [4])
1: Soybean plant response rating (0 to 10 scale) (soybean; [2]) | Soybean plant response rating (soybean; [6]) | Morningglory plant response rating (morningglory; [5]) | Morningglory plant response rating (morningglory; [6])
3: Giant foxtail plant response rating (0 to 10 scale) (giant foxtail; [2]) | Plant response rating, Redroot pigweed (pigweed; [4]) | Plant response rating (0 to 10; 0 is no effect, 10 is complete control), Redroot pigweed (pigweed; Rate 250 g/ha, Postemergence) | Crabgrass plant response rating (crabgrass; [3])
5: Morningglory plant response rating (morningglory; [7])
